Values after ≈ are worked out from the molar mass of the structure shown. Where a SMILES comes first, the peptide text is derived from it. Side-chain parts run from the residue outwards.
Legend:
Pseudomonas aeruginosa = assay: Antibacterial activity against Pseudomonas aeruginosa ATCC 27853 assessed as inhibition of bacterial growth incubated for 20 hrs by broth microdilution method; type: functional
Escherichia coli = assay: Antibacterial activity against Escherichia coli ATCC 25922 assessed as inhibition of bacterial growth incubated for 20 hrs by broth microdilution method; type: functional
Staphylococcus aureus = assay: Antibacterial activity against Staphylococcus aureus ATCC 25923 assessed as inhibition of bacterial growth incubated for 20 hrs by broth microdilution method; type: functional
Klebsiella pneumoniae = assay: Antibacterial activity against Klebsiella pneumoniae ATCC 700603 assessed as inhibition of bacterial growth incubated for 20 hrs by broth microdilution method; type: functional
Bacillus subtilis = assay: Antibacterial activity against Bacillus subtilis ATCC 23857 assessed as inhibition of bacterial growth incubated for 20 hrs by broth microdilution method; type: functional
Acinetobacter baumannii = assay: Antibacterial activity against Acinetobacter baumannii ATCC 19606 assessed as inhibition of bacterial growth incubated for 20 hrs by broth microdilution method; type: functional
Erythrocyte = assay: Hemolytic activity in mouse erythrocytes assessed as 10% hemolysis incubated for 1 hr by absorbance based analysis; type: toxicity, cell-based
[1] = Cytotoxicity against HEK293T cells assessed as cell death measured after 1 hr by resazurin dye based analysis; type: toxicity, HEK-293T; conditions: human, HEK293T cells

N=C(N)NCCC[C@H](NC(=O)[C@H](CCCNC(=N)N)NC(=O)[C@H](CCCNC(=N)N)NC(=O)[C@H](CCCNC(=N)N)NC(=O)[C@H](CCCNC(=N)N)NC(=O)[C@H](CCCCNC(=O)[C@H](Cc1c[nH]c2ccccc12)NC(=O)[C@@H](N)Cc1c[nH]c2ccccc12)NC(=O)[C@H](Cc1c[nH]c2ccccc12)NC(=O)[C@@H](N)Cc1c[nH]c2ccccc12)C(N)=O (H-WWK([Trp-Trp])RRRRR-NH2)
MIC (Pseudomonas aeruginosa): 32 µM (≈ 53.5 µg/mL)
MIC (Escherichia coli): 8 µM (≈ 13.4 µg/mL)
MIC (Staphylococcus aureus): 8 µM (≈ 13.4 µg/mL)
MIC (Klebsiella pneumoniae): 64 µM (≈ 107 µg/mL)
MIC (Bacillus subtilis): 8 µM (≈ 13.4 µg/mL)
MIC (Acinetobacter baumannii): 32 µM (≈ 53.5 µg/mL)
MHC10 (Erythrocyte): > 256 µM
CC50 at 1 h [1]: > 128 µM

H-WWKRRR-NH2
MIC (Pseudomonas aeruginosa): > 128 µM
MIC (Escherichia coli): > 128 µM
MIC (Staphylococcus aureus): > 128 µM
MIC (Klebsiella pneumoniae): > 128 µM
MIC (Bacillus subtilis): 64 µM
MIC (Acinetobacter baumannii): > 128 µM
MHC10 (Erythrocyte): > 256 µM
CC50 at 1 h [1]: > 128 µM

H-RRRRKWWW-NH2
MIC (Pseudomonas aeruginosa): 16 µM
MIC (Escherichia coli): 64 µM
MIC (Staphylococcus aureus): 8 µM
MIC (Klebsiella pneumoniae): 64 µM
MIC (Bacillus subtilis): 8 µM
MIC (Acinetobacter baumannii): 128 µM
MHC10 (Erythrocyte): > 256 µM
CC50 at 1 h [1]: > 128 µM

N=C(N)NCCC[C@H](NC(=O)[C@H](CCCCN)NC(=O)[C@H](Cc1c[nH]c2ccccc12)NC(=O)[C@@H](N)Cc1c[nH]c2ccccc12)C(N)=O (H-WWKR-NH2)
MIC (Pseudomonas aeruginosa): > 128 µM
MIC (Escherichia coli): > 128 µM
MIC (Staphylococcus aureus): > 128 µM
MIC (Klebsiella pneumoniae): > 128 µM
MIC (Bacillus subtilis): > 128 µM
MIC (Acinetobacter baumannii): > 128 µM
MHC10 (Erythrocyte): > 256 µM
CC50 at 1 h [1]: > 128 µM

N=C(N)NCCC[C@H](NC(=O)[C@H](CCCNC(=N)N)NC(=O)[C@H](CCCNC(=N)N)NC(=O)[C@H](CCCCNC(=O)[C@H](Cc1c[nH]c2ccccc12)NC(=O)[C@@H](N)Cc1c[nH]c2ccccc12)NC(=O)[C@H](Cc1c[nH]c2ccccc12)NC(=O)[C@@H](N)Cc1c[nH]c2ccccc12)C(N)=O (H-WWK([Trp-Trp])RRR-NH2)
MIC (Pseudomonas aeruginosa): > 128 µM
MIC (Escherichia coli): > 128 µM
MIC (Staphylococcus aureus): 16 µM (≈ 21.7 µg/mL)
MIC (Klebsiella pneumoniae): > 128 µM
MIC (Bacillus subtilis): 16 µM (≈ 21.7 µg/mL)
MIC (Acinetobacter baumannii): 128 µM (≈ 174 µg/mL)
MHC10 (Erythrocyte): > 256 µM
CC50 at 1 h [1]: > 128 µM

N=C(N)NCCC[C@H](NC(=O)[C@@H](N)CCCNC(=N)N)C(=O)N[C@@H](CCCCN)C(=O)N[C@@H](Cc1c[nH]c2ccccc12)C(N)=O (H-RRKW-NH2)
MIC (Pseudomonas aeruginosa): > 128 µM
MIC (Escherichia coli): > 128 µM
MIC (Staphylococcus aureus): > 128 µM
MIC (Klebsiella pneumoniae): > 128 µM
MIC (Bacillus subtilis): > 128 µM
MIC (Acinetobacter baumannii): > 128 µM
MHC10 (Erythrocyte): > 256 µM
CC50 at 1 h [1]: > 128 µM

N=C(N)NCCC[C@H](NC(=O)[C@@H](N)CCCNC(=N)N)C(=O)NCCCC[C@H](NC(=O)[C@H](CCCNC(=N)N)NC(=O)[C@@H](N)CCCNC(=N)N)C(=O)N[C@@H](Cc1c[nH]c2ccccc12)C(=O)N[C@@H](Cc1c[nH]c2ccccc12)C(=O)N[C@@H](Cc1c[nH]c2ccccc12)C(N)=O (H-RRK([Arg-Arg])WWW-NH2)
MIC (Pseudomonas aeruginosa): 16 µM (≈ 21.3 µg/mL)
MIC (Escherichia coli): 16 µM (≈ 21.3 µg/mL)
MIC (Staphylococcus aureus): 16 µM (≈ 21.3 µg/mL)
MIC (Klebsiella pneumoniae): 64 µM (≈ 85 µg/mL)
MIC (Bacillus subtilis): 4 µM (≈ 5.31 µg/mL)
MIC (Acinetobacter baumannii): > 128 µM
MHC10 (Erythrocyte): > 256 µM
CC50 at 1 h [1]: > 128 µM

H-WWWWKRRRRR-NH2
MIC (Pseudomonas aeruginosa): 16 µM
MIC (Escherichia coli): 16 µM
MIC (Staphylococcus aureus): 8 µM
MIC (Klebsiella pneumoniae): 32 µM
MIC (Bacillus subtilis): 8 µM
MIC (Acinetobacter baumannii): 32 µM
MHC10 (Erythrocyte): > 256 µM
CC50 at 1 h [1]: 116 µM

N=C(N)NCCC[C@H](N)C(=O)NCCCC[C@H](NC(=O)[C@@H](N)CCCNC(=N)N)C(=O)N[C@@H](Cc1c[nH]c2ccccc12)C(=O)N[C@@H](Cc1c[nH]c2ccccc12)C(=O)N[C@@H](Cc1c[nH]c2ccccc12)C(N)=O (H-RK(Arg)WWW-NH2)
MIC (Pseudomonas aeruginosa): 32 µM (≈ 32.5 µg/mL)
MIC (Escherichia coli): > 128 µM
MIC (Staphylococcus aureus): 32 µM (≈ 32.5 µg/mL)
MIC (Klebsiella pneumoniae): > 128 µM
MIC (Bacillus subtilis): 32 µM (≈ 32.5 µg/mL)
MIC (Acinetobacter baumannii): > 128 µM
MHC10 (Erythrocyte): > 256 µM
CC50 at 1 h [1]: > 128 µM

H-WWWWWWKRRRRR-NH2
MIC (Pseudomonas aeruginosa): 16 µM
MIC (Escherichia coli): 16 µM
MIC (Staphylococcus aureus): 8 µM
MIC (Klebsiella pneumoniae): 32 µM
MIC (Bacillus subtilis): 8 µM
MIC (Acinetobacter baumannii): 16 µM
MHC10 (Erythrocyte): 29.45 µM
CC50 at 1 h [1]: 44.9 µM

H-WWWWKRRR-NH2
MIC (Pseudomonas aeruginosa): 16 µM
MIC (Escherichia coli): 32 µM
MIC (Staphylococcus aureus): 8 µM
MIC (Klebsiella pneumoniae): 64 µM
MIC (Bacillus subtilis): 8 µM
MIC (Acinetobacter baumannii): 32 µM
MHC10 (Erythrocyte): > 256 µM
CC50 at 1 h [1]: > 128 µM

N=C(N)NCCC[C@H](NC(=O)[C@H](CCCNC(=N)N)NC(=O)[C@H](CCCNC(=N)N)NC(=O)[C@H](CCCCNC(=O)[C@@H](N)Cc1c[nH]c2ccccc12)NC(=O)[C@@H](N)Cc1c[nH]c2ccccc12)C(N)=O (H-WK(Trp)RRR-NH2)
MIC (Pseudomonas aeruginosa): > 128 µM
MIC (Escherichia coli): > 128 µM
MIC (Staphylococcus aureus): > 128 µM
MIC (Klebsiella pneumoniae): > 128 µM
MIC (Bacillus subtilis): > 128 µM
MIC (Acinetobacter baumannii): > 128 µM
MHC10 (Erythrocyte): > 256 µM
CC50 at 1 h [1]: > 128 µM

N=C(N)NCCC[C@H](NC(=O)[C@H](CCCNC(=N)N)NC(=O)[C@H](CCCNC(=N)N)NC(=O)[C@H](CCCNC(=N)N)NC(=O)[C@H](CCCNC(=N)N)NC(=O)[C@H](CCCCNC(=O)[C@H](Cc1c[nH]c2ccccc12)NC(=O)[C@H](Cc1c[nH]c2ccccc12)NC(=O)[C@@H](N)Cc1c[nH]c2ccccc12)NC(=O)[C@H](Cc1c[nH]c2ccccc12)NC(=O)[C@H](Cc1c[nH]c2ccccc12)NC(=O)[C@@H](N)Cc1c[nH]c2ccccc12)C(N)=O (H-WWWK([Trp-Trp-Trp])RRRRR-NH2)
MIC (Pseudomonas aeruginosa): 32 µM (≈ 65.4 µg/mL)
MIC (Escherichia coli): 16 µM (≈ 32.7 µg/mL)
MIC (Staphylococcus aureus): 8 µM (≈ 16.3 µg/mL)
MIC (Klebsiella pneumoniae): 32 µM (≈ 65.4 µg/mL)
MIC (Bacillus subtilis): 8 µM (≈ 16.3 µg/mL)
MIC (Acinetobacter baumannii): 32 µM (≈ 65.4 µg/mL)
MHC10 (Erythrocyte): 22.73 µM
CC50 at 1 h [1]: 48.2 µM

N=C(N)NCCC[C@H](NC(=O)[C@@H](N)CCCNC(=N)N)C(=O)NCCCC[C@H](NC(=O)[C@H](CCCNC(=N)N)NC(=O)[C@@H](N)CCCNC(=N)N)C(=O)N[C@@H](Cc1c[nH]c2ccccc12)C(=O)N[C@@H](Cc1c[nH]c2ccccc12)C(=O)N[C@@H](Cc1c[nH]c2ccccc12)C(=O)N[C@@H](Cc1c[nH]c2ccccc12)C(=O)N[C@@H](Cc1c[nH]c2ccccc12)C(N)=O (H-RRK([Arg-Arg])WWWWW-NH2)
MIC (Pseudomonas aeruginosa): 16 µM (≈ 27.2 µg/mL)
MIC (Escherichia coli): 16 µM (≈ 27.2 µg/mL)
MIC (Staphylococcus aureus): 16 µM (≈ 27.2 µg/mL)
MIC (Klebsiella pneumoniae): 16 µM (≈ 27.2 µg/mL)
MIC (Bacillus subtilis): 8 µM (≈ 13.6 µg/mL)
MIC (Acinetobacter baumannii): 32 µM (≈ 54.4 µg/mL)
MHC10 (Erythrocyte): 51.32 µM
CC50 at 1 h [1]: 58.8 µM

H-RRKWWW-NH2
MIC (Pseudomonas aeruginosa): 128 µM
MIC (Escherichia coli): 64 µM
MIC (Staphylococcus aureus): 64 µM
MIC (Klebsiella pneumoniae): > 128 µM
MIC (Bacillus subtilis): 16 µM
MIC (Acinetobacter baumannii): 128 µM
MHC10 (Erythrocyte): > 256 µM
CC50 at 1 h [1]: > 128 µM

N=C(N)NCCC[C@H](NC(=O)[C@H](CCCNC(=N)N)NC(=O)[C@H](CCCNC(=N)N)NC(=O)[C@H](CCCNC(=N)N)NC(=O)[C@H](CCCNC(=N)N)NC(=O)[C@H](CCCNC(=N)N)NC(=O)[C@H](CCCNC(=N)N)NC(=O)[C@H](CCCCNC(=O)[C@H](Cc1c[nH]c2ccccc12)NC(=O)[C@H](Cc1c[nH]c2ccccc12)NC(=O)[C@@H](N)Cc1c[nH]c2ccccc12)NC(=O)[C@H](Cc1c[nH]c2ccccc12)NC(=O)[C@H](Cc1c[nH]c2ccccc12)NC(=O)[C@@H](N)Cc1c[nH]c2ccccc12)C(N)=O
MIC (Pseudomonas aeruginosa): 16 µM (≈ 37.7 µg/mL)
MIC (Escherichia coli): 32 µM (≈ 75.4 µg/mL)
MIC (Staphylococcus aureus): 16 µM (≈ 37.7 µg/mL)
MIC (Klebsiella pneumoniae): 64 µM (≈ 151 µg/mL)
MIC (Bacillus subtilis): 16 µM (≈ 37.7 µg/mL)
MIC (Acinetobacter baumannii): 32 µM (≈ 75.4 µg/mL)
MHC10 (Erythrocyte): 17.53 µM
CC50 at 1 h [1]: 41.9 µM

CN[C@H](CC(C)C)C(=O)N[C@H]1C(=O)N[C@@H](CC(N)=O)C(=O)N[C@H]2C(=O)N[C@H]3C(=O)N[C@H](C(=O)N[C@H](C(=O)O)c4cc(O)cc(O)c4-c4cc3ccc4O)[C@H](O)c3ccc(c(Cl)c3)Oc3cc2cc(c3O[C@@H]2O[C@H](CO)[C@@H](O)[C@H](O)[C@H]2O[C@H]2C[C@](C)(N)[C@H](O)[C@H](C)O2)Oc2ccc(cc2Cl)[C@H]1O [VANCOMYCIN]
MIC (Pseudomonas aeruginosa): > 128 µM
MIC (Escherichia coli): 64 µM (≈ 92.8 µg/mL)
MIC (Staphylococcus aureus): < 1 µM
MIC (Klebsiella pneumoniae): 128 µM (≈ 186 µg/mL)
MIC (Bacillus subtilis): < 1 µM
MIC (Acinetobacter baumannii): 64 µM (≈ 92.8 µg/mL)

From ChEMBL document CHEMBL5500371, “Arginine and tryptophan-rich dendritic antimicrobial peptides that disrupt membranes for bacterial infection in vivo” (Eur J Med Chem, 2024)
